Columns and labels:
Experiment in all cases: Kinase profiling screen (radioactive filter-binding assay)
Type in all cases: biochemical
Src = Src (Homo sapiens, UniProt P12931); conditions: for activity at 100 µM: 100 μM compound, 50 μM ATP, read-out: Kinase activity, % of activity in the absence of inhibitor
Procedure, shortened: (§1)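 Panel of 117 recombinant kinases; CoA, dpCoA, ADP each at 100 μM final, duplicates; model substrates, ATP at optimal level.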

DYRK3 = biological target: T1, DYRK3 (Homo sapiens, UniProt O43781); conditions: 100 μM compound, 5 μM ATP; read-out: Kinase activity, % of activity in the absence of inhibitor
T1 sequence (O43781 1-588): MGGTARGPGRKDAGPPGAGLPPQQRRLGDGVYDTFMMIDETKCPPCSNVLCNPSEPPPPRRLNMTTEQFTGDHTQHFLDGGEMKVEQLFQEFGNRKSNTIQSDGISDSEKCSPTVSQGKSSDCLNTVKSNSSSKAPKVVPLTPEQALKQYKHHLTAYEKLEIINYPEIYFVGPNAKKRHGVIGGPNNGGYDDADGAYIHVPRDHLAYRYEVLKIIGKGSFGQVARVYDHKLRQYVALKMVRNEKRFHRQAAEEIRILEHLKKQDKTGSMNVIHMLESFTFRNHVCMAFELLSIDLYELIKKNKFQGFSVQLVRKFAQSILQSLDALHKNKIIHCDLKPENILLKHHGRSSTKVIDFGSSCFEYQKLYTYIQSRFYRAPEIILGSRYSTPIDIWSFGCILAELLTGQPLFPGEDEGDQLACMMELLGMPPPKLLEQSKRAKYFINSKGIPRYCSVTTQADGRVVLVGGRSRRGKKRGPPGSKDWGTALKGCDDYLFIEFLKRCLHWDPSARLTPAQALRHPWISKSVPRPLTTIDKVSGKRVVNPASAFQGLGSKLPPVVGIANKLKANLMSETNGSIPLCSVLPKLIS
Procedure, shortened: as §1

EPH-B2 = biological target: T2, EPH-B2 (Homo sapiens, UniProt P29323); conditions: 100 μM compound, 20 μM ATP; read-out: Kinase activity, % of activity in the absence of inhibitor
T2 sequence (P29323 19-1055): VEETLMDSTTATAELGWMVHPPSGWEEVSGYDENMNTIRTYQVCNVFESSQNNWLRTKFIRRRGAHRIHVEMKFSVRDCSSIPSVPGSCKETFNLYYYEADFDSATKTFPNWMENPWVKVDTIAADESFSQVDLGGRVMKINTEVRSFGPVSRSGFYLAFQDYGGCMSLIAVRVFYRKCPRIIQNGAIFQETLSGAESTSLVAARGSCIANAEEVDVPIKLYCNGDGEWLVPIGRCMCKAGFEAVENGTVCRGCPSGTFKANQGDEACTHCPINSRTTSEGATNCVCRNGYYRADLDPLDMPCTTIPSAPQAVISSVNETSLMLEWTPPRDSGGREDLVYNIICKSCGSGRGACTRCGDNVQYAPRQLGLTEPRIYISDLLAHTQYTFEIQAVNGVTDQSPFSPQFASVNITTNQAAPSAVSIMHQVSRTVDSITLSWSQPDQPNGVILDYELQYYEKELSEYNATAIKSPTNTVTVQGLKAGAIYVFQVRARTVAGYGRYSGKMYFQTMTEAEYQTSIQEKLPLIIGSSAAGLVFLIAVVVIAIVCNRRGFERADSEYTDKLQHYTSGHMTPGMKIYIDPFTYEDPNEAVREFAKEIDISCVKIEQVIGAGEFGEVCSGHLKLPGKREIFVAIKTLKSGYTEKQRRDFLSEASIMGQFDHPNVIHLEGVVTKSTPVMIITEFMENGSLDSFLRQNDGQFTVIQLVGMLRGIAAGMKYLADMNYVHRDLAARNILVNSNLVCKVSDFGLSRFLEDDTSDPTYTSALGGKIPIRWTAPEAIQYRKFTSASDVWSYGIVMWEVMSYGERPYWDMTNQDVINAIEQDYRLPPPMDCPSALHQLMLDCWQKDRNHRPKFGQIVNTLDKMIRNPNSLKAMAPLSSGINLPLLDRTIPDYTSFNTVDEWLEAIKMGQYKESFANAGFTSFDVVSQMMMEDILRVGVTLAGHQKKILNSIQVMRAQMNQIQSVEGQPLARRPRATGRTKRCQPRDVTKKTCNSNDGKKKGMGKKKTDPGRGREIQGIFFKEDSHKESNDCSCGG
Procedure, shortened: as §1

p38β MAPK = p38β MAPK (Homo sapiens, UniProt Q15759); conditions: 100 μM compound, 20 μM ATP; read-out: Kinase activity, % of activity in the absence of inhibitor
Procedure, shortened: as §1

CK1δ = CK1δ (Homo sapiens, UniProt P48730); conditions: 100 μM compound, 20 μM ATP; read-out: Kinase activity, % of activity in the absence of inhibitor
Procedure, shortened: as §1

PKCζ = biological target: T3, PKCζ (Homo sapiens, UniProt Q05513); conditions: 100 μM compound, 5 μM ATP; read-out: Kinase activity, % of activity in the absence of inhibitor
T3 sequence (Q05513 1-592): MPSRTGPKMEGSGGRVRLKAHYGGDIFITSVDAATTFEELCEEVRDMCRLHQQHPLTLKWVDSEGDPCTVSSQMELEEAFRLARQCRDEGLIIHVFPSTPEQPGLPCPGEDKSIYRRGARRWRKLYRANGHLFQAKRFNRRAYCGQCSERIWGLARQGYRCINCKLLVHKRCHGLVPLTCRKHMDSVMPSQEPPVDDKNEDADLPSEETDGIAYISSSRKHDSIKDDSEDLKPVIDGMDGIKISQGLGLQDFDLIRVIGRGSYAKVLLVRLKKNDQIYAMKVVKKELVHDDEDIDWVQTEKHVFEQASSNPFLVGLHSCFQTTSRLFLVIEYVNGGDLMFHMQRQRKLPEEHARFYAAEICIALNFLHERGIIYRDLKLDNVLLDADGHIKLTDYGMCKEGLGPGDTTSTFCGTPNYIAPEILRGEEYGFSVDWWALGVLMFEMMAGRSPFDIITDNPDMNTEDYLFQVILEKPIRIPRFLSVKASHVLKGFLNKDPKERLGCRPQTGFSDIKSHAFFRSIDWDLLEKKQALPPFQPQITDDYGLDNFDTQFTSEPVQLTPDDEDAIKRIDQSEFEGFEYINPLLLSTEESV
Procedure, shortened: as §1

MELK = MELK (Homo sapiens, UniProt Q14680); conditions: 100 μM compound, 50 μM ATP; read-out: Kinase activity, % of activity in the absence of inhibitor
Procedure, shortened: as §1

Chain of p38β MAPK (Q15759 whole entry): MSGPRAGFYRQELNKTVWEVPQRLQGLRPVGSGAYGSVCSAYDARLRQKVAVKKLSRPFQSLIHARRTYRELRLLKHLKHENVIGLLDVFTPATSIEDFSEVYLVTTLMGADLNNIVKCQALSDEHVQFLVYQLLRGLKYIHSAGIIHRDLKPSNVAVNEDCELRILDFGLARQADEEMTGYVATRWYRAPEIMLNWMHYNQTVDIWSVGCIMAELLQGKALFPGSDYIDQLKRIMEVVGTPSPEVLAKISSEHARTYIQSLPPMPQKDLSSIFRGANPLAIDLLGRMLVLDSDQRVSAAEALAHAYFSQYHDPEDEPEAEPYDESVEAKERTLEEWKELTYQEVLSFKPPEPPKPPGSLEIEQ
Chain of CK1δ (P48730 whole entry): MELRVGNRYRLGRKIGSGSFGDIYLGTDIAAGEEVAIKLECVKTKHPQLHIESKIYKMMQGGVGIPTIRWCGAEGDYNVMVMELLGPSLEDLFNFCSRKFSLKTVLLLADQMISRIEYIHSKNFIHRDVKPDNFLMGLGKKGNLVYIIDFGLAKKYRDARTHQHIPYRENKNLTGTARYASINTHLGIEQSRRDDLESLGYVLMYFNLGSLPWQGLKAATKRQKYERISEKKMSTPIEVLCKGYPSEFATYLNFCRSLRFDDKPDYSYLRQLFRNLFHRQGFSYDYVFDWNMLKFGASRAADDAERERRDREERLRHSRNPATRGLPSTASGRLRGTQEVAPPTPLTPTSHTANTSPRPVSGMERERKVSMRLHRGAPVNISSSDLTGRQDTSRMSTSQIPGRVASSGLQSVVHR
Chain of Src (P12931 whole entry): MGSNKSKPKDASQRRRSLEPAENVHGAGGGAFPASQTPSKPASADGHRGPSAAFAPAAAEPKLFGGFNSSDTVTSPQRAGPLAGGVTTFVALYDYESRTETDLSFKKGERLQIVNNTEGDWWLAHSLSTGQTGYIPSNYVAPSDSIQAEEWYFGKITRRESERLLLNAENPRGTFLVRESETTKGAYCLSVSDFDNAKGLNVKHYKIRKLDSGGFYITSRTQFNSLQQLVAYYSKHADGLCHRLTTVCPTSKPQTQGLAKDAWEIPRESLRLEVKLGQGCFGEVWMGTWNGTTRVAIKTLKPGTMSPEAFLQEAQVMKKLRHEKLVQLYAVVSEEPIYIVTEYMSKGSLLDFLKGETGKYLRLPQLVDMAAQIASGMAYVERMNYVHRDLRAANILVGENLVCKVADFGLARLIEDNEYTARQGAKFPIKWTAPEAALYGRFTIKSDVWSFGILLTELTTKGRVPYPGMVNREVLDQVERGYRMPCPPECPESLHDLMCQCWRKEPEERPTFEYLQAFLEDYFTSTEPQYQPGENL
Chain of MELK (Q14680 whole entry): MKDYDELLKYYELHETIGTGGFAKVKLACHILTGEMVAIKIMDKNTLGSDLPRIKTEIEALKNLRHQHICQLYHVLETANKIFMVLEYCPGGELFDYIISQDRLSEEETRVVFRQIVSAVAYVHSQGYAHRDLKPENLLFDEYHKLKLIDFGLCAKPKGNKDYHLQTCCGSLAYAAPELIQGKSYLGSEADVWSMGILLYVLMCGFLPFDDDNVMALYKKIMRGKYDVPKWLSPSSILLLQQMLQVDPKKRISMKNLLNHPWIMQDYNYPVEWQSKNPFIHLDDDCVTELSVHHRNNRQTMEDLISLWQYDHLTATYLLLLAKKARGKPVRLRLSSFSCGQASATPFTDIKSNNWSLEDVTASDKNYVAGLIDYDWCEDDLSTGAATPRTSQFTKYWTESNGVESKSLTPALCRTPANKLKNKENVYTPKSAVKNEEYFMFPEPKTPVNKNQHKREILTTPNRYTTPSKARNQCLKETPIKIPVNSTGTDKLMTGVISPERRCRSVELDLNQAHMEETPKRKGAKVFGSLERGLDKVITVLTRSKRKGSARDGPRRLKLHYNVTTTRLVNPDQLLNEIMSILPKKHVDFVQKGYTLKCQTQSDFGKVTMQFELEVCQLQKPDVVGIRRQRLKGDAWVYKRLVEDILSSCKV

Structure (SMILES)	inhibition at 100 µM (Src; 100 μM CoA, kinase profiling screen) [%]	activity at 100 µM (Src) [%]	SRC inhibition (in words) (Src; kinase profiling, 100 μM)	activity at 100 µM (DYRK3) [%]	activity at 100 µM (EPH-B2) [%]	activity at 100 µM (p38β MAPK) [%]	activity at 100 µM (CK1δ) [%]	activity at 100 µM (PKCζ) [%]	activity at 100 µM (MELK) [%]
CC(C)(COP(=O)(O)OP(=O)(O)OC[C@H]1O[C@@H](n2cnc3c(N)ncnc32)[C@H](O)[C@@H]1OP(=O)(O)O)[C@@H](O)C(=O)NCCC(=O)NCCS [CoA, Coenzyme A]	≤ 50	43.8	modestly inhibited	95.1	117	160	80.8	99.3	76.3
CC(C)(COP(=O)(O)OP(=O)(O)OCC1OC(n2cnc3c(N)ncnc32)C(O)C1O)C(O)C(=O)NCCC(=O)NCCS (centres unmarked) [dpCoA, dephospho-CoA]	–	8.9	–	91.2	91.1	94.5	80.4	89.9	104
Nc1ncnc2c1ncn2C1OC(COP(=O)(O)OP(=O)(O)O)C(O)C1O (centres unmarked) [ADP]	–	31.8	–	16.2	14.3	51.1	57.6	37.7	63.5
